Test results: patent US20190208800A1, “L-GLUTAMINE IN SWINE DIETS” (The United States of America, as represented by the …, priority 2018, published 2019)
Marks after values point to notes of the source that are not given here.

How the values were obtained:
[1] = Example 1: small-scale simulated transport of post-weaning pigs, 14-day diets; assay type: in vivo; settings: 0.20% L-glutamine diet, 14 days post-weaning and simulated transport
Excerpt: In a small-scale example, three groups of post-weaning pigs were subjected to a simulated transport experience immediately post-weaning and then provided different diets to assess the effects of L-glutamine as a supplement in the diet. The details of the procedure are given in full in “Evaluating the behavior, growth performance, immune parameters, and intestinal morphology of weaned piglets after simulated transport and heat stress when antibiotics are eliminated from the diet or replaced with L-glutamine” by Johnson, J. S. and Lay Jr., D. C. in the Journal of Animal Science (2017, 95, 91-102), which is incorporated herein in its entirety by reference. In this experiment, the piglets were fed on disparate feeds for 14 days post-weaning and simulated transport, and then euthanized by CO2 exposure and exsanguination.

[2] = Example 2: nursery growth performance (d 0 to d 34 post-weaning) in a production environment; assay type: in vivo, pigs
Excerpt: (§1) In a larger example, three groups of post-weaning and post-transport pigs (each group n=160, total of 480 pigs, 50% male and 50% female) were fed on different diets to assess the effects of L-glutamine as a supplement in the diet in a production environment. The diets consisted primarily of corn and soybean meal as in Example 1. One group (Group A) was fed a standard swine feed in two phases containing a standard antibiotic supplement (400 g chlortetracycline and 35 g tiamulin/ton of feed), another group (GLN) was fed a standard swine feed in two phases containing 0.20% L-glutamine, and a third group (NA) was given a standard swine diet in two phases containing no antibiotics or immunomodulators. Otherwise, the diets for groups A, GLN, and NA were the same. The disparate diets were given to the different groups for 14 days post-weaning and transport, following which all three groups were on a common diet for the remainder of the trial. This experiment was conducted from Jul. 28, 2016 to Sep. 21, 2017. The pigs were followed all the way through market (i.e., day 125 post-weaning, being about 6 months of age).

[3] = test system: tumor necrosis factor alpha (TNFα); experiment: Example 3: tumor necrosis factor alpha in pigs' blood (FIG. 2); assay type: in vivo; settings: blood samples; diets for 14 days after weaning and 12 h transport; vs no antibiotics
Experimental: Error bars represent ±1 standard error of the mean (SEM). Letters (a, b) indicate statistically significant differences (P≤0.05) between dietary treatments. In a similar experiment to the one above in Example 2, an L-glutamine-containing diet was evaluated for pigs to determine how it affected their general health and productivity. The experiment was conducted under commercial production conditions using a total of 480 mixed-sex (50% male and 50% female) pigs. Pigs were weaned and then transported for 12 hours to the nursery facility. Once pigs arrived at the nursery facility they were provided 1 of 3 separate diets, those being no antibiotics or L-glutamine (NA); 0.20% L-glutamine (GLN); or dietary antibiotics (A) for 14 days. After the 14-day period all pigs were provided the same antibiotic-free diets until they reached market weight. Blood and intestinal samples were collected from pigs to determine whole body immune function and intestinal integrity. […] Specifically, blood samples from the pigs were tested for tumor necrosis factor alpha (TNFα), a pro-inflammatory cytokine, elevated levels of which can be indicative of systemic inflammation and immune system activation which can be detrimental to the health and productivity of pigs. A reduction in circulating TNFα would be indicative of a decreased whole body inflammatory response in pigs. […]

[4] = Example 2: grow-finish growth performance (d 0 to d 125) until market; assay type: in vivo, pigs
Excerpt: as §1, with “age).[…]” for “age).”

[5] = test system: intestines; experiment: Example 3: ratio of villus height to crypt depth in the intestines (FIG. 3); assay type: in vivo, pigs; settings: intestinal samples; diets for 14 days after weaning and 12 h transport; compared to NA
Experimental: Error bars represent ±1 standard error of the mean (SEM). Letters (x, y) indicate statistical tendencies (0.05<P≤0.10) between dietary treatments. In a similar experiment to the one above in Example 2, an L-glutamine-containing diet was evaluated for pigs to determine how it affected their general health and productivity. The experiment was conducted under commercial production conditions using a total of 480 mixed-sex (50% male and 50% female) pigs. Pigs were weaned and then transported for 12 hours to the nursery facility. Once pigs arrived at the nursery facility they were provided 1 of 3 separate diets, those being no antibiotics or L-glutamine (NA); 0.20% L-glutamine (GLN); or dietary antibiotics (A) for 14 days. After the 14-day period all pigs were provided the same antibiotic-free diets until they reached market weight. Blood and intestinal samples were collected from pigs to determine whole body immune function and intestinal integrity. […] In particular, intestinal samples from pigs were analyzed to determine the ratio of villus height to crypt depth in the intestines. Villus height to crypt depth ratio is a morphological measure of intestinal health and a greater ratio indicates an improvement in intestinal health. […] Improved intestinal health is essential for nutrient absorption and preventing pathogens from entering the body. […]

[6] = test system: enteric disease; experiment: Example 2: percentage of pigs treated for enteric disease (FIG. 1); assay type: in vivo; settings: 0.20% L-glutamine diet; Period 1 (d 0-14) and Period 2 (d 15-34) post-weaning and transport
Excerpt: Period 1 is 0-14 days post-weaning and transport and Period 2 is 15-34 days post-weaning and transport. Error bars represent ±1 standard error of the mean (SEM). Letters (a, b) indicate statistically significant differences (P≤0.05) between dietary treatments and symbols (*, #) indicate statistically significant differences (P≤0.05) between periods. In a larger example, three groups of post-weaning and post-transport pigs (each group n=160, total of 480 pigs, 50% male and 50% female) were fed on different diets to assess the effects of L-glutamine as a supplement in the diet in a production environment. The diets consisted primarily of corn and soybean meal as in Example 1. One group (Group A) was fed a standard swine feed in two phases containing a standard antibiotic supplement (400 g chlortetracycline and 35 g tiamulin/ton of feed), another group (GLN) was fed a standard swine feed in two phases containing 0.20% L-glutamine, and a third group (NA) was given a standard swine diet in two phases containing no antibiotics or immunomodulators. Otherwise, the diets for groups A, GLN, and NA were the same. […] Data were analyzed on a per pen basis and the assumptions of normality of error, homogeneity of variance, and linearity were confirmed post-hoc.

[7] = d 0 to 14 post-weaning, diet treatment period
[8] = d 0 to 34 post-weaning, overall nursery
[9] = d 15 to 34 post-weaning, common diet period

NC(=O)CC[C@H](N)C(=O)O [GLN, L-glutamine]
effectiveness in other parameters ([1]; vs antibiotics): approximately as effective as the antibiotics
productivity ([1]; vs non-antibiotic and antibiotic group): better productivity compared to the non-antibiotic and antibiotic group
overall nursery phase performance ([2]; d 0-34 post-weaning, vs antibiotic pigs): performed similarly to the antibiotic pigs
Average daily feed intake [2, 7]: 272.06^a g
Average daily gain [2, 7]: 210.78^a g
Feed efficiency, gain: feed [2, 7]: 0.79^ab
Average daily feed intake [2, 8]: 517.08^xy g
Average daily gain [2, 8]: 352.73^ab g
Feed efficiency, gain: feed [2, 8]: 0.71^ab
d 14 body weight ([2]; d 14 post-weaning): 8.50^a kg
Average daily feed intake [2, 9]: 680.43 g
Average daily gain [2, 9]: 447.36 g
Feed efficiency, gain: feed [2, 9]: 0.66
d 34 body weight ([2]; d 34 post-weaning): 17.49^ab kg
feed intake, average daily gain, and final body weight compared to the non-antibiotic group ([2]; diet treatment period, d 0-14 post-weaning): significantly higher
circulating TNFα [3]: reduced at a similar level
growth performance of piglets through the end of the nursery phase ([4]; body weight at start of grow-finish phase vs no antibiotic pigs): effective in improving the growth performance of piglets through the end of the nursery phase
Feed efficiency, gain: feed ([4]; d 0 to 62 of grow-finish phase, common diet): 0.46
Feed efficiency, gain: feed ([4]; d 0 to 125 of grow-finish phase): 0.38
d 62 body weight ([4]; d 62 of grow-finish phase): 65.02 kg
Feed efficiency, gain: feed ([4]; d 62 to 125 of grow-finish phase, common diet): 0.31
Final body weight ([4]; d 125, market): 121.73 kg
Initial body weight ([4]; start of grow-finish phase (d 0), diets given 14 days post-weaning, then common diet): 17.49^a kg
villus height to crypt depth ratio [5]: greater
requirement for injectable therapeutic antibiotics for enteric disease [6]: the same requirement for injectable therapeutic antibiotics for enteric disease as the piglets fed the antibiotics
